# Measurements published in ChEMBL document CHEMBL4419178, “Yap1 inhibitors that target the interaction of yap1 with oct4” (2018).
# Active and inactive are the calls of the source. The rule behind the calls is not given here.
# Columns and labels:
# [1] = biological target: Transcriptional coactivator YAP1 (Homo sapiens) (UniProt P46937); assay: Inhibition of YAP1 in human NCI-H1650 cells assessed as suppression of fibronectin mRNA expression at 5 to 10 uM incubated for 72 hrs by RT-PCR method; type: cell-based
# [2] = biological target: Transcriptional coactivator YAP1 (Homo sapiens) (UniProt P46937); assay: Inhibition of YAP1 in human NCI-H1703 cells assessed as suppression of fibronectin mRNA expression at 5 to 10 uM incubated for 72 hrs by RT-PCR method; type: cell-based
# [3] = biological target: Transcriptional coactivator YAP1 (Homo sapiens) (UniProt P46937); assay: Inhibition of YAP1 (unknown origin) assessed as disruption in YAP1/OCT4 interaction at 50 uM by cell based assay
# HCC827 = assay: Cytotoxicity in erlotinib-resistant human HCC827 cells assessed as reduction in cell viability at 1 to 20 uM by MTT assay; type: functional, cell-based
# [4] = biological target: Transcriptional coactivator YAP1 (Homo sapiens) (UniProt P46937); assay: Inhibition of YAP1 in human NCI-H1650 cells assessed as suppression of Sox2 mRNA expression at 5 to 10 uM incubated for 72 hrs by RT-PCR method; type: cell-based
# HUVEC = assay: Inhibition of angiogenic tubule formation in HUVEC at 1 to 5 uM incubated for 18 to 24 hrs; type: functional, cell-based; conditions: Homo sapiens
# [5] = biological target: Transcriptional coactivator YAP1 (Homo sapiens) (UniProt P46937); assay: Inhibition of YAP1 in human NCI-H146 cells assessed as suppression of PDK2 mRNA expression at 5 to 10 uM incubated for 72 hrs by RT-PCR method; type: cell-based
# NCI-H226 = assay: Cytotoxicity in human NCI-H226 cells assessed as reduction in cell viability at 0.5 to 20 uM incubated for 96 hrs by MTT assay; type: functional, cell-based
# NCI-H1703 [6] = assay: Effect on expression of Oct4 mRNA expression in human NCI-H1703 cells at 5 to 10 uM incubated for 72 hrs by RT-PCR method; type: cell-based; conditions: nci-h1703, 72 h
# [7] = biological target: Transcriptional coactivator YAP1 (Homo sapiens) (UniProt P46937); assay: Inhibition of YAP1 in human NCI-H1650 cells assessed as disruption in YAP1/OCT4 interaction at 5 uM incubated for 72 hrs by immunoprecipitation-Westem blot assay; type: cell-based
# NCI-H1650 [8] = assay: Inhibition of self-renewal capacity in cisplatin insensitive stem-like side-population cells of human NCI-H1650 cells assessed as reduction in number of spheres at 2 uM incubated for 5 days after 7 days cisplatin exposure by sphere formation assay; type: functional, cell-based
# NCI-H1650 [9] = assay: Inhibition of self-renewal capacity in stem-like side-population cells of human NCI-H1650 cells assessed as reduction in number of spheres at 50 uM incubated for 10 days by sphere formation assay relative to control; type: functional; conditions: NCI-H1650, 240 h
# NCI-H1703 [10] = assay: Inhibition of YAP1/TEAD2 interaction in human NCI-H1703 cells assessed as suppression of CTGF mRNA expression at 5 to 10 uM incubated for 72 hrs by RT-PCR method; type: cell-based
# NCI-H146 [11] = assay: Effect on expression of Oct4 mRNA expression in human NCI-H146 cells at 5 to 10 uM incubated for 72 hrs by RT-PCR method; type: cell-based; conditions: nci-h146, 72 h
# NCI-H1650 [12] = assay: Effect on expression of Oct4 mRNA expression in human NCI-H1650 cells at 5 to 10 uM incubated for 72 hrs by RT-PCR method; type: cell-based; conditions: nci-h1650, 72 h
# NCI-H1650 [13] = assay: Cytotoxicity in human NCI-H1650 cells assessed as reduction in cell viability at 0.5 to 20 uM incubated for 72 hrs by MTT assay; type: functional, cell-based
# [14] = biological target: Transcriptional coactivator YAP1 (Homo sapiens) (UniProt P46937); assay: Inhibition of YAP1 in human NCI-H1650 cells assessed as suppression of vimentin mRNA expression at 5 to 10 uM incubated for 72 hrs by RT-PCR method; type: cell-based
# NCI-H146 [15] = assay: Effect on expression of Nanog mRNA expression in human NCI-H146 cells at 5 to 10 uM incubated for 72 hrs by RT-PCR method; type: cell-based; conditions: nci-h146, 72 h
# [16] = biological target: Transcriptional coactivator YAP1 (Homo sapiens) (UniProt P46937); assay: Inhibition of YAP1 in human NCI-H1703 cells assessed as suppression of PDK2 mRNA expression at 5 to 10 uM incubated for 72 hrs by RT-PCR method; type: cell-based
# [17] = biological target: Transcriptional coactivator YAP1 (Homo sapiens) (UniProt P46937); assay: Inhibition of YAP1 in human NCI-H1650 cells assessed as suppression of PDK2 mRNA expression at 5 to 10 uM incubated for 72 hrs by RT-PCR method; type: cell-based
# [18] = biological target: Transcriptional coactivator YAP1 (Homo sapiens) (UniProt P46937); assay: Inhibition of YAP1 in human NCI-H1703 cells assessed as suppression of HK2 mRNA expression at 5 to 10 uM incubated for 72 hrs by RT-PCR method; type: cell-based
# NCI-H1703 [19] = assay: Effect on expression of Nanog mRNA expression in human NCI-H1703 cells at 5 to 10 uM incubated for 72 hrs by RT-PCR method; type: cell-based; conditions: nci-h1703, 72 h
# [20] = biological target: Transcriptional coactivator YAP1 (Homo sapiens) (UniProt P46937); assay: Inhibition of YAP1 in human NCI-H1703 cells assessed as suppression of vimentin mRNA expression at 5 to 10 uM incubated for 72 hrs by RT-PCR method; type: cell-based
# [21] = biological target: Transcriptional coactivator YAP1 (Homo sapiens) (UniProt P46937); assay: Inhibition of YAP1 in human NCI-H1650 cells assessed as suppression of PD-L1 mRNA expression at 5 to 10 uM incubated for 72 hrs by RT-PCR method; type: cell-based
# NCI-H1650 [22] = assay: Inhibition of YAP1/TEAD2 interaction in human NCI-H1650 cells assessed as suppression of CTGF mRNA expression at 5 to 10 uM incubated for 72 hrs by RT-PCR method; type: cell-based
# NCI-H146 [23] = assay: Inhibition of self-renewal capacity in methotrexate insensitive stem-like side-population cells of human NCI-H146 cells assessed as reduction in number of spheres at 2 uM incubated for 3 days after 7 days methotrexate exposure by sphere formation assay; type: functional
# NCI-H1703 [24] = assay: Cytotoxicity in human NCI-H1703 cells assessed as reduction in cell viability at 0.5 to 20 uM incubated for 96 hrs by MTT assay; type: functional, cell-based
# NCI-H1975 = assay: Cytotoxicity in gefitinib and erlotinib resistant human NCI-H1975 cells assessed as reduction in cell viability at 1 to 10 uM incubated for 72 hrs by MTT assay; type: functional, cell-based
# [25] = biological target: Transcriptional coactivator YAP1 (Homo sapiens) (UniProt P46937); assay: Inhibition of YAP1 in human NCI-H1703 cells assessed as suppression of Sox2 mRNA expression at 5 to 10 uM incubated for 72 hrs by RT-PCR method; type: cell-based
# [26] = biological target: Transcriptional coactivator YAP1 (Homo sapiens) (UniProt P46937); assay: Inhibition of YAP1 in human NCI-H1650 cells assessed as reduction in Sox2 protein expression at 50 uM by luciferase reporter gene assay; type: cell-based
# NCI-H1650 [27] = assay: Effect on expression of Nanog mRNA expression in human NCI-H1650 cells at 5 to 10 uM incubated for 72 hrs by RT-PCR method; type: cell-based; conditions: nci-h1650, 72 h
# [28] = biological target: Transcriptional coactivator YAP1 (Homo sapiens) (UniProt P46937); assay: Inhibition of YAP1 (unknown origin) assessed as disruption in YAP1/OCT4 interaction at 5 uM by ELISA relative to control
# [29] = biological target: Transcriptional coactivator YAP1 (Homo sapiens) (UniProt P46937); assay: Inhibition of YAP1 in human A549 cells assessed as disruption in YAP1/OCT4 interaction at 5 uM incubated for 72 hrs by immunoprecipitation-Westem blot assay; type: cell-based
# [30] = biological target: Transcriptional coactivator YAP1 (Homo sapiens) (UniProt P46937); assay: Inhibition of YAP1 in human NCI-H146 cells assessed as suppression of HK2 mRNA expression at 5 to 10 uM incubated for 72 hrs by RT-PCR method; type: cell-based
# Homo sapiens [31] = species on record: Homo sapiens; assay: Cytotoxicity in human 92-1 cells assessed as reduction in cell viability at 0.5 to 20 uM incubated for 72 hrs by MTT assay; type: functional, cell-based
# SK-MEL-5 = assay: Cytotoxicity in human SK-MEL-5 cells assessed as reduction in cell viability at 0.5 to 20 uM incubated for 72 hrs by MTT assay; type: functional, cell-based
# Homo sapiens [32] = species on record: Homo sapiens; assay: Cytotoxicity in human WM1366 cells assessed as reduction in cell viability at 0.5 to 20 uM incubated for 72 hrs by MTT assay; type: functional, cell-based
# A549 = assay: Cytotoxicity in human A549 cells assessed as reduction in cell viability at 0.5 to 20 uM incubated for 72 hrs by MTT assay; type: functional, cell-based
# PC-9 = assay: Cytotoxicity in gefitinib resistant human PC9 cells assessed as reduction in cell viability at 1 to 20 uM by MTT assay; type: functional, cell-based
# [33] = biological target: Transcriptional coactivator YAP1 (Homo sapiens) (UniProt P46937); assay: Inhibition of YAP1 in human NCI-H1650 cells assessed as suppression of HK2 mRNA expression at 5 to 10 uM incubated for 72 hrs by RT-PCR method; type: cell-based
# [34] = biological target: Transcriptional coactivator YAP1 (Homo sapiens) (UniProt P46937); assay: Inhibition of YAP1 in human NCI-H146 cells assessed as suppression of Sox2 mRNA expression at 5 to 10 uM incubated for 72 hrs by RT-PCR method; type: cell-based
# [35] = biological target: Transcriptional coactivator YAP1 (Homo sapiens) (UniProt P46937); assay: Inhibition of YAP1 in human NCI-H1703 cells assessed as suppression of PD-L1 mRNA expression at 5 to 10 uM incubated for 72 hrs by RT-PCR method; type: cell-based
# Sequence of Transcriptional coactivator YAP1 (Homo sapiens) (P46937 whole entry): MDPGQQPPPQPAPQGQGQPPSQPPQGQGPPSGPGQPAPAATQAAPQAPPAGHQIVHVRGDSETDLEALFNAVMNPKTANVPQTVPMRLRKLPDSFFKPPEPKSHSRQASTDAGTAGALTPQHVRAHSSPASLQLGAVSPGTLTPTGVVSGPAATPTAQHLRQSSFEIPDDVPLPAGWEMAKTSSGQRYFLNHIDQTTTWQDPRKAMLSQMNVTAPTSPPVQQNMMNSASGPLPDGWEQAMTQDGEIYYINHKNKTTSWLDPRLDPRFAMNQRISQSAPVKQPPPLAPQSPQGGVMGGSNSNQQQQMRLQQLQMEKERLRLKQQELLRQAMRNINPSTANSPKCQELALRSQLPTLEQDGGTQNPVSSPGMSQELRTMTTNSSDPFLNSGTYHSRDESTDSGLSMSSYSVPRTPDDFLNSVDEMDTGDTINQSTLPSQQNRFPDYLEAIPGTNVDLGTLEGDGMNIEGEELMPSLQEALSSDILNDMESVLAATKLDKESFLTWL
compound,measurement,setting,value
O=C(CC1CCN(C(=O)CCc2ccccc2)CC1)N[C@@H](Cc1ccc(OCc2ccccc2)cc1)C(=O)O,inhibition,[1],Active
same,inhibition,[2],Active
same,inhibition,[3],> 85%
same,Activity,HCC827,Active
same,inhibition,[4],Active
same,inhibition,HUVEC,Active
same,inhibition,[5],Active
same,Activity,NCI-H226,Active
same,Activity,NCI-H1703 [6],Non-Toxic
same,inhibition,[7],Active
same,inhibition,NCI-H1650 [8],Active
same,inhibition at 50 µM,NCI-H1650 [9],72.6%
same,inhibition,NCI-H1703 [10],inactive
same,Activity,NCI-H146 [11],Non-Toxic
same,Activity,NCI-H1650 [12],Non-Toxic
same,Activity,NCI-H1650 [13],Active
same,inhibition,[14],Active
same,Activity,NCI-H146 [15],Non-Toxic
same,inhibition,[16],Active
same,inhibition,[17],Active
same,inhibition,[18],Active
same,Activity,NCI-H1703 [19],Non-Toxic
same,inhibition,[20],Active
same,inhibition,[21],Active
same,inhibition,NCI-H1650 [22],inactive
same,inhibition,NCI-H146 [23],Active
same,Activity,NCI-H1703 [24],Active
same,Activity,NCI-H1975,Active
same,inhibition,[25],Active
same,inhibition,[26],85.3%
same,Activity,NCI-H1650 [27],Non-Toxic
same,inhibition,[28],95%
same,inhibition,[29],Active
same,inhibition,[30],Active
same,Activity,Homo sapiens [31],Active
same,Activity,SK-MEL-5,Active
same,Activity,Homo sapiens [32],Active
same,Activity,A549,Active
same,Activity,PC-9,Active
same,inhibition,[33],Active
same,inhibition,[34],Active
same,inhibition,[35],Active
